Marks after values point to notes of the source that are not given here.
Assays:
Format in all cases: in vivo
Conditions in all cases: 100 = 100% disease control
[1] = test system: Botrytis cinerea; assay: Test C: tomato Botrytis on tomato seedlings, sprayed the day before inoculation, visual disease rating
Summary of the method: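 Each compound is first taken up in acetone at 3% of the final volume and then brought to the desired ppm in a 50:50 acetone–water mix with 250 ppm surfactant (polyhydric alcohol esters). Tomato seedlings receive the suspension to run-off, normally at 200 ppm, occasionally 40 ppm.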

[2] = test system: Alternaria solani; assay: Test D: tomato early blight, sprayed the day before inoculation, visual disease rating
Summary of the method: (§1)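 Test rate was 200 ppm, sprayed to run-off and equal to 500 g/ha, or 40 ppm where marked. The compound was first taken up in acetone at 3% of final volume and suspended in acetone/purified water (50/50) containing 250 ppm Trem® 014.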

[3] = test system: Septoria nodorum; assay: Test F: wheat glume blotch on wheat seedlings, sprayed the day before inoculation, visual disease rating
Summary of the method: as §1

[4] = test system: Septoria tritici; assay: Test G: wheat leaf blotch on wheat seedlings, sprayed the day before inoculation, visual disease rating
Summary of the method: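 Spray to run-off, 200 ppm (≈500 g/ha; starred = 40 ppm), acetone/water 50/50 + 250 ppm Trem® 014. Spore inoculation +1 d. 24° C saturated 48 h → 20° C 19 d. Visual rating.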

[5] = test system: Puccinia recondita f. sp. tritici; assay: Test I: wheat leaf rust on wheat seedlings, sprayed the day before inoculation, visual disease rating
Summary of the method: as §1

[6] = test system: Erysiphe graminis f. sp. tritici; assay: Test J: wheat powdery mildew on wheat seedlings, sprayed the day before inoculation, visual disease rating
Summary of the method: as §1

[7] = 200 ppm, 0 = no control relative to controls
[8] = 40 ppm (marked *), 0 = no control

| Compound | Test C disease control rating [1, 7] [%] | Test D disease control rating [2, 7] [%] | Test F disease control rating [3, 7] [%] | Test G disease control rating [4, 7] [%] | Test I disease control rating [5, 7] [%] | Test J disease control rating [6, 7] [%] | Test C disease control rating ([1]; 200 ppm, 0 = no control) [%] | Test D disease control rating ([2]; 200 ppm, 0 = no control) [%] | Test F disease control rating ([3]; 200 ppm, 0 = no control) [%] | Test G disease control rating ([4]; 200 ppm, 0 = no control) [%] | Test I disease control rating ([5]; 200 ppm, 0 = no control) [%] | Test J disease control rating ([6]; 200 ppm, 0 = no control) [%] | also measured |
| --- | --- | --- | --- | --- | --- | --- | --- | --- | --- | --- | --- | --- | --- |
| Fc1cccc(F)c1-c1c(Cl)nc(Br)n1-c1ccc(C(F)(F)F)cc1 [compound 84] | 0 | 99 | 0 | 88 | 91 | 99 |  |  |  |  |  |  |  |
| Cc1nc(Cl)c(-c2ccc(F)cc2Cl)n1-c1ccc(Cl)c(F)c1 [compound 243] |  |  |  |  |  |  | 99 | 100 | 98 | 99 | 100 | 98 |  |
| Cc1nc(Cl)n(-c2ccc(Cl)c(F)c2)c1-c1c(F)ccc(F)c1F [compound 389] | 98 | 100 | 0 | 91 | 99 | 98 |  |  |  |  |  |  |  |
| Cc1nc(Cl)c(-c2c(F)cccc2Cl)n1-c1ccc(Cl)c(F)c1 [compound 244] |  |  |  |  |  |  | 100 | 100 | 99 | 96 | 99 | 100 |  |
| Cc1ccc(-n2c(C)nc(Cl)c2-c2c(F)ccc(F)c2F)cc1 [compound 155] |  |  |  |  |  |  | 99 | 100 | 87 | 95 | 99 | 100 |  |
| COc1cc(F)c(-c2c(C)nc(C)n2-c2ccc(Cl)cc2)c(F)c1 [compound 55] |  |  |  |  |  |  |  |  |  |  |  |  | Test C disease control rating ([1]; 40 ppm (marked *)): 94* %; Test D disease control rating ([2]; 40 ppm (marked *)): 100* %; Test F disease control rating ([3]; 40 ppm (marked *)): 98* %; Test G disease control rating ([4]; 40 ppm (marked *)): 93* %; Test I disease control rating ([5]; 40 ppm (marked *)): 99* %; Test J disease control rating ([6]; 40 ppm (marked *)): 100* % |
| Cc1ccc(-n2c(Cl)nc(Cl)c2-c2c(F)cccc2Cl)cc1 [compound 227] |  |  |  |  |  |  | 98 | 96 | 0 | 94 | 99 | 99 |  |
| Cc1nc(Cl)c(-c2c(F)ccc(Br)c2F)n1-c1ccc(Cl)cc1 [compound 91] | 98 | 100 | 100 | 99 | 96 | 100 |  |  |  |  |  |  |  |
| Cc1nc(Cl)c(-c2c(F)ccc(F)c2Cl)n1-c1ccc(Cl)cc1 [compound 80] | 90 | 100 | 100 | 98 | 100 | 100 |  |  |  |  |  |  |  |
| COc1cc(F)c(-c2c(Cl)nc(Cl)n2-c2ccc(C)cc2)c(F)c1 [compound 146] | 99 | 100 | 100 | 100 | 100 | 100 |  |  |  |  |  |  |  |
| COc1cc(F)c(-n2c(C)nc(C)c2-c2ccc(Cl)cc2)c(F)c1 [compound 249] |  |  |  |  |  |  |  |  |  |  |  |  | Test C disease control rating [1, 8]: 100* %; Test D disease control rating [2, 8]: 99* %; Test F disease control rating [3, 8]: 73* %; Test G disease control rating [4, 8]: 93* %; Test I disease control rating [5, 8]: 74* %; Test J disease control rating [6, 8]: 81* % |
| Fc1ccc(F)c(-c2c(Cl)nc(Br)n2-c2ccc(Cl)cc2)c1F [compound 50] | 98 | 100 | 100 | 92 | 100 | 100 |  |  |  |  |  |  |  |
| Cc1ccc(-n2c(Cl)nc(Cl)c2-c2c(F)cc(F)cc2F)cc1 [compound 154] |  |  |  |  |  |  | 99 | 100 | 0 | 93 | 86 | 99 |  |
| Cc1ccc(F)c(-c2c(Cl)ncn2-c2ccc(Cl)cc2)c1F [compound 97] | 94 | 97 | 0 | 95 | 91 | 99 |  |  |  |  |  |  |  |
| COc1cc(F)c(-n2cnc(Br)c2-c2ccc(Cl)cc2)c(F)c1 [compound 173] |  |  |  |  |  |  |  |  |  |  |  |  | Test C disease control rating [1, 8]: 98* %; Test D disease control rating [2, 8]: 0* %; Test F disease control rating [3, 8]: 0* %; Test G disease control rating [4, 8]: 90* %; Test I disease control rating [5, 8]: 41* %; Test J disease control rating [6, 8]: 0* % |
